Assay results as given in US9113629B2, “4-amino-6-(4-substituted-phenyl)-picolinates and 6-amino-2-(4-substituted-phenyl)-pyrimidine-4-carboxylates and their use as herbicides” (DOW AGROSCIENCES LLC, priority 2013, dated 2015).
Read-outs that look alike come from different tables or passages of the source.

Assays:
[1] = system: Key Broadleaf Weed and Crop Species; test: Post-emergent Test II herbicidal activity (Table 5); format: in vivo; conditions: post-emergence, 336 h, post-emergent, 14 days after application; for pest or weed control at 70 g/ha: 70 g ai/ha; for pest or weed control at 140 g/ha: 140 g ai/ha
Outline: (§1)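 Spray rates: a highest rate plus ½×, ¼×, ⅛×, 1/16×, all delivered at 187 L/ha to plants at the first–second true leaf stage. Readout is a visual percent injury score at 14 d, where 100 means complete kill.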

[2] = system: Key Grass and Sedge Weeds as well as Grass Crops; test: Post-emergent Test II herbicidal activity (Table 6); format: in vivo; conditions: post-emergence, 336 h; for pest or weed control at 70 g/ha: application rate 70 g ai/ha; for pest or weed control at 140 g/ha: application rate 140 g ai/ha
Outline: as §1

[3] = ABUTH: velvetleaf (Abutilon theophrasti), read-out: Visual Growth Reduction (%) 14 Days After Application ABUTH
[4] = AMARE: redroot pigweed (Amaranthus retroflexus), read-out: Visual Growth Reduction (%) 14 Days After Application AMARE
[5] = BRSNN: oilseed-rape, canola (Brassica napus), read-out: Visual Growth Reduction (%) 14 Days After Application BRSNN
[6] = CHEAL: lambsquarters (Chenopodium album), read-out: Visual Growth Reduction (%) 14 Days After Application CHEAL
[7] = EPHHL: wild poinsettia (Euphorbia heterophylla), read-out: Visual Growth Reduction (%) 14 Days After Application EPHHL
[8] = HELAN: sunflower (Helianthus annuus), read-out: Visual Growth Reduction (%) 14 Days After Application HELAN
[9] = VIOTR: wild pansy (Viola tricolor), read-out: Visual Growth Reduction (%) 14 Days After Application VIOTR
[10] = CYPES: yellow nutsedge (Cyperus esculentus), read-out: Visual Growth Reduction (%) 14 Days After Application, CYPES
[11] = DIGSA: crabgrass (Digitaria sanguinalis), read-out: Visual Growth Reduction (%) 14 Days After Application, DIGSA
[12] = ECHCG: barnyardgrass (Echinochloa crus-galli), read-out: Visual Growth Reduction (%) 14 Days After Application, ECHCG
[13] = ORYSA: rice (Oryza sativa), read-out: Visual Growth Reduction (%) 14 Days After Application, ORYSA
[14] = SETFA: giant foxtail (Setaria faberi), read-out: Visual Growth Reduction (%) 14 Days After Application, SETFA
[15] = SORVU: grain sorghum (Sorghum vulgare), read-out: Visual Growth Reduction (%) 14 Days After Application, SORVU
[16] = TRZSS (wheat, Triticum aestivum), read-out: Visual Growth Reduction (%) 14 Days After Application, TRZSS
[17] = ZEAMX: maize, corn (Zea mays), read-out: Visual Growth Reduction (%) 14 Days After Application, ZEAMX

Compound: N#Cc1ccc(-c2nc(C(=O)O)c(Cl)c(N)c2F)c(F)c1 [Compound 65, 4-amino-3-chloro-6-(4-cyano-2-fluorophenyl)-5-fluoropicolinic acid]
- pest or weed control at 70 g/ha [1, 3]: 0 to 29%
- pest or weed control at 140 g/ha [1, 3]: 0 to 29%
- pest or weed control at 70 g/ha [1, 4]: 95 to 100%
- pest or weed control at 140 g/ha [1, 4]: 95 to 100%
- pest or weed control at 70 g/ha [1, 5]: 0 to 29%
- pest or weed control at 140 g/ha [1, 5]: 30 to 44%
- pest or weed control at 70 g/ha [1, 6]: 60 to 74%
- pest or weed control at 140 g/ha [1, 6]: 75 to 84%
- pest or weed control at 70 g/ha [1, 7]: 95 to 100%
- pest or weed control at 140 g/ha [1, 7]: 95 to 100%
- pest or weed control at 70 g/ha [1, 8]: 85 to 94%
- pest or weed control at 140 g/ha [1, 8]: 95 to 100%
- pest or weed control at 70 g/ha [1, 9]: 0 to 29%
- pest or weed control at 140 g/ha [1, 9]: 30 to 44%
- pest or weed control at 70 g/ha [2, 10]: 0 to 29%
- pest or weed control at 140 g/ha [2, 10]: 0 to 29%
- pest or weed control at 70 g/ha [2, 11]: 0 to 29%
- pest or weed control at 140 g/ha [2, 11]: 0 to 29%
- pest or weed control at 70 g/ha [2, 12]: 0 to 29%
- pest or weed control at 140 g/ha [2, 12]: 0 to 29%
- pest or weed control at 70 g/ha [2, 13]: 0 to 29%
- pest or weed control at 140 g/ha [2, 13]: 0 to 29%
- pest or weed control at 70 g/ha [2, 14]: 0 to 29%
- pest or weed control at 140 g/ha [2, 14]: 0 to 29%
- pest or weed control at 70 g/ha [2, 15]: 0 to 29%
- pest or weed control at 140 g/ha [2, 15]: 0 to 29%
- pest or weed control at 70 g/ha [2, 16]: 0 to 29%
- pest or weed control at 140 g/ha [2, 16]: 0 to 29%
- pest or weed control at 70 g/ha [2, 17]: 0 to 29%
- pest or weed control at 140 g/ha [2, 17]: 0 to 29%
